The nature of data set [1]: Quantitative T1-mapping MRI of glymphatic transport of intrathecally (cisterna magna) injected Gd-chelate into the brain, transcranial ultrasound vs sham. It counts as in vivo, rat. More on the design: mean gadolinium-enhanced volume: unit not given here. As for the experimental part:
(§1) Animals. The Institutional Animal Care and Use Committees of Stanford University approved all animal experiments. Tests were performed in 42 male Long-Evans rats with bodyweight 300-350 gm (Charles River Laboratories, Wilmington, Mass., USA). Animals were randomly assigned to one of two groups: (1) no treatment (Sham), and (2) treatment (Ultrasound). Ultrasound (0.25 MI in situ, 7.7% duty cycle for 10 min) or sham was applied transcranially throughout the brain (FIG. 1A). Before each procedure, the fur on the neck was shaved and a cisterna magna injection of a gadolinium (Gd) chelate (Multihance, Bracco Diagnostics, NJ, USA) was performed while the animal was anesthetized under isoflurane. The body temperature, cardiac and respiratory rates, and O2 saturation were monitored throughout the experiment and the isoflurane level was titrated to keep these parameters constant; environmental heating was used to help maintain body temperature. Localizer, FLASH-T1-3D, T1-mapping, and T2*-weighted MR images were taken to visualize glymphatic transport across the brain, to quantify Gd-chelate kinetic parameters, and to evaluate for parenchymal damage. In separate cohorts, either of two different sized optical tracers, a small molecule (IR800CW Carboxylate, LICOR, Lincoln, Nebr., USA; ˜1 kDa) or a large molecule (Panitumumab-IRDye800: ˜150 kDa, 5 nM, produced under GMP at the Leidos Biomedical Research Center, Frederick, Md., USA) (39) were co-delivered with the Gd-chelate to model the delivery of similar-sized therapeutic agents.
Intrathecal Cisterna Magna Injection For anesthesia, the animals were induced with 5% isoflurane in oxygen using an induction chamber and then switched to a maintenance dose of 2%. The animal was positioned in a stereotaxic frame (Stoelting, Wood Dale, Ill., USA), immobilized with ear bars, and then the head flexed to 45 degrees. A 27-gauge catheter (Butterfly Needle, SAI Infusion Technology, Lake Villa, Ill., USA) was inserted in the cisterna magna to inject up to 80 μl of tracers (Gd-chelate: MultiHance, gadobenate dimeglumine; Bracco Diagnostics Inc, NJ, USA; 0.21 ml/kg) slowly over 30 seconds. To model the delivery of similar-sized therapeutic agents, two different sized molecules, free dye (IRDye800CW Carboxylate, LICOR, Lincoln, Nebr., USA; ˜1 kDa; 36 nmol/kg) and IR dye-conjugated antibody (Panitumumab-IRDye800: ˜150 kDa; 0.133 mg/kg) were co-delivered with the Gd-chelate. The respiratory rate (45-50 breaths per minute), and normal body temperature (36.5-37.5° C.) were maintained throughout the experiment through titration of isoflurane dose and with environmental heating.
Magnetic Resonance Imaging Protocol. Magnetic Resonance Imaging (MRI) (an actively-shielded Bruker 7T horizontal bore scanner (Bruker Corp, Billerica Mass.), with International Electric Co. (IECO) gradient drivers, a 120 mm ID shielded gradient insert (600 mT/m, 1000 T/m/s), AVANCE III electronics; 8-channel multi-coil RF and multinuclear capabilities and volume RF coils; and the supporting Paravision 6.0.1 platform) was used to visualize glymphatic transport of Gd-chelate into the brain and to make quantitative T1-maps. The facility provides isoflurane anesthesia in medical-grade oxygen, and physiological monitoring of the subject including ECG, pulse oximetry, respiration, and temperature feedback for core body temperature maintenance by warm airflow over the animal. Following cisterna magna contrast agent injection, an MRI compatible animal FUS system (Image Guided Therapy—IGT, Pessac, France) was used in all experiments. Animals were placed in a prone position in a plastic stereotactic frame that has a single channel radiofrequency transmit-receive head coil (IGT) which is coupled to the FUS system. Animals were immobilized in the frame with ear bars and a bite bar. Noninvasive, MRI-compatible monitors for the respiratory rate and body temperature were used during the imaging session. […]

Data set [2] can be described thus: Near-infrared fluorescence imaging of brain slices after intrathecal co-delivery of optical tracers, transcranial ultrasound vs sham. The settings on record: about 2 hours after intrathecal delivery, 10 min ultrasound. It counts as in vivo, rat. On the procedure:
as §1, with “In separate cohorts, either of two different sized optical tracers, a small molecule (IR800CW Carboxylate, LICOR, Lincoln, Nebr., USA; ˜1 kDa) or a large molecule (Panitumumab-IRDye800: ˜150 kDa, 5 nM, produced under GMP at the Leidos Biomedical Research Center, Frederick, Md., USA) (39) were co-delivered with the Gd-chelate to model the delivery of similar-sized therapeutic agents.” left out
Fluorescence Imaging. […] Tissue sections were thaw-mounted on microscope glass slides (Fisher, Pittsburgh, Pa.), fixed the tissue-slides using 4% paraformaldehyde, and applied DAPI for fluorescence imaging. […]

“Also recorded” adds a separate entry of the source.

Consider `CNC[C@H](O)[C@@H](O)[C@H](O)[C@H](O)CO.CNC[C@H](O)[C@@H](O)[C@H](O)[C@H](O)CO.O=C([O-])CN(CCN(CC(=O)[O-])CC(=O)O)CCN(CC(=O)O)C(COCc1ccccc1)C(=O)[O-].[Gd+3]` (stereo not drawn) [Gd-chelate, gadobenate dimeglumine], for which the “time at which perivascular influx of CSF into the brain is initially observed” value in data set [1] (3D T1w MRI, after intrathecal administration) stood at 12 min. Besides, in data set [1] (T1-mapping MRI over time), the “brain volume containing a resolvable amount of contrast agent, ultrasound versus sham” value is reported as “significantly larger volume of brain”. Also, the “time by which cleared from the CSF-ISF spaces” value in data set [1] (T1w MRI after cisternal injection) was at most 3 h. For the same compound, the “Gd-chelate deposition in the brain” value in data set [1] (T1w MRI, 24-72 h after ultrasound intervention) is “no any evidence of Gd deposition; also recorded: no prolonged Gd-chelate deposition”. Besides, the mean gadolinium-enhanced volume in data set [1] (Ultrasound cohort (0.25 MI, 10 min, applied at 23 min), 12 min baseline) worked out at 0.18±0.07; in data set [1] (Ultrasound cohort, 35 min) it was 0.43±0.16; in data set [1] (Ultrasound cohort, 70 min), 0.44±0.17; in data set [1] (Ultrasound cohort, 105 min), 0.45±0.25; in data set [1] (Ultrasound cohort, 180 min), 0.18±0.24; in data set [1] (Ultrasound cohort, 240 min) it was 0.17±0.24. Besides, the mean gadolinium-enhanced volume in data set [1] (sham cohort, 12 min after intrathecal injection, mean ± S.D.) is on record as 0.17±0.084; in data set [1] (sham cohort, 35 min), 0.25±0.15; in data set [1] (sham cohort, 70 min) it was 0.22±0.1; in data set [1] (sham cohort, 105 min), 0.23±0.11; in data set [1] (sham cohort, 180 min), 0.11±0.12; in data set [1] (sham cohort, 240 min) it was 0.06±0.04. Also, in data set [1] (low-intensity transcranial scanning ultrasound vs sham), the “increase of peak parenchymal uptake with ultrasound” value was 72-101%. Moreover, the “clearance timeline from the brain” value in data set [1] (with ultrasound) amounted to 3 h. The “residual tracer in the brain” value in data set [1] (with ultrasound, 3 h post-injection) is reported as “increased residual tracer in the brain”. For the same compound, in data set [1] (with ultrasound, from injection), the “time of peak parenchymal uptake” value turned out to be 105 min. For the same compound, the “time of peak brain concentration” value in data set [1] (without further intervention (no ultrasound), after intrathecal injection) was “approximately 35 min”. Besides, in data set [1] (without further intervention, from injection), the “time to clear from the brain interstitial compartment” value is recorded as at most 3 h.

“Panitumumab-IRDye800: therapeutic antibody panitumumab (~150 kDa, EGFR-targeted) conjugated with the IR dye; large optical tracer”: the “brain penetration (near-infrared dye-enhanced area), ultrasound compared to sham” value in data set [2] is recorded as “significantly greater degree with ultrasound”; in data set [2] (listed as panitumumab), “penetrated to a greater degree into the brain”.
